Source: patent publication US11524934B2, “Phenylamine compounds” (PI INDUSTRIES LTD., priority 2017, dated 2022)

What was measured:
[1] = test system: Colletotrichum capsici; assay: Colletotrichum capsici (anthracnose) in vitro test, radial growth on Potato Dextrose Agar; conditions: Colletotrichum truncatum, 168 h, read-out: control
Procedure: Colletotrichum capsici (anthracnose): Compounds were dissolved in 0.3% DMSO & then added to Potato Dextrose Agar medium just prior to dispensing it into Petri dishes. 5 ml medium with compound in the desired concentration was dispensed into 60 mm sterile petri-plates. After solidification each plate was seeded with 5 mm size mycelial disc taken form periphery of actively growing virulent culture plate. Plates were incubated in growth chambers at 25° C. temperature & 60% Relative Humidity for seven days and radial growth was measured.

[2] = test system: Botrytis cinerea; assay: Botrytis cinerea (Gray mold) in vitro test, radial growth on Potato Dextrose Agar; conditions: 168 h, read-out: control
Procedure: (§1) Compounds of present invention were assessed for activity against one or more of the following: Biological Test Examples, in vitro test
Botrytis cinerea (Gray mold): Compounds were dissolved in 0.3% DMSO & then added to Potato Dextrose Agar medium just prior to dispensing it into Petri dishes. 5 ml medium with compound in the desired concentration was dispensed into 60 mm sterile Petri-plates. After solidification each plate was seeded with 5 mm size mycelial disc taken form periphery of actively growing virulent culture plate. Plates were incubated in growth chambers at 22° C. temperature & 90% Relative Humidity for seven days and radial growth was measured.

[3] = test system: Pyricularia oryzae; assay: microbe, parasite or virus in culture; format: cell-based; conditions: 168 h, read-out: control
[4] = test system: Septoria lycopersici; assay: Septoria lycopersici (Leaf spot of tomato) in vitro test, radial growth on Potato Dextrose Agar; conditions: 168 h, read-out: control
Procedure: Septoria lycopersici (Leaf spot of tomato): Compounds were dissolved in 0.3% DMSO & then added to Potato Dextrose Agar medium just prior to dispensing it into Petri dishes. 5 ml medium with compound in the desired concentration was dispensed into 60 mm sterile petri-plates. After solidification each plate was seeded with 5 mm size mycelial disc taken form periphery of actively growing virulent culture plate. Plates were incubated in growth chambers at 25° C. temperature & 70% Relative Humidity for seven days and radial growth was measured.

[5] = test system: Rhizoctonia solani; conditions: 168 h, read-out: control
Procedure: Rhizoctonia solani (Rice sheath blight/Potato black scurf): Compounds were dissolved in 0.3% DMSO & then added to Potato Dextrose Agar medium just prior to dispensing it into Petri dishes. 5 ml medium with compound in the desired concentration was dispensed into 60 mm sterile Petri-plates. After solidification each plate was seeded with 5 mm size mycelial disc taken form periphery of actively growing virulent culture plate. Plates were incubated in growth chambers at 25° C. temperature & 60% Relative Humidity for seven days and radial growth was measured.

[6] = test system: Alternaria solani; assay: Alternaria solani (early blight of tomato/potato) in vitro test, radial growth on Potato Dextrose Agar; conditions: 168 h, read-out: control
Procedure: as §1

[7] = test system: Phakopsora pachyrhizi; assay: Phakopsora pachyrhizi test in soybean (in vivo on plants), preventive activity; conditions: preventive spray on soybean plants, inoculated one day after treatment, disease severity rated vs untreated check
Procedure: Example 8 (In Vivo on Plants): Phakopsora pachyrhizi Test in Soybean
Compounds were dissolved in 2% DMSO/Acetone & then mixed with water to the calibrated spray volume of 50 ml and poured into the spray bottles for further applications.
To test the preventive activity of compounds, healthy young soybean plants raised in the greenhouse were sprayed with active compound preparation at the stated application rates inside the spray cabinets using hallowcone nozzles. One day after treatment, the plants were inoculated with spore suspension containing 2.1×10^6 Phakopsora pachyrhizi inoculum. The inoculated plants were then kept in greenhouse chamber at 25° C. temperature & 90% Relative Humidity for disease expression.
A visual assessment of compound's performance was carried out by rating the disease severity (0-100% scale) on treated plants on 3, 7, 10 & 15 days after application. Efficacy (% control) of the compounds was calculated by comparing the disease rating in the treatment with the one of the untreated control. The sprayed plants were also assessed for compound's plant compatibility by recording symptoms like necrosis, chlorosis & stunting.

[8] = test system: Fusarium culmorum; assay: Fusarium culmorum (Foot rot of cereals) in vitro test, radial growth on Potato Dextrose Agar; format: cell-based; conditions: 168 h, read-out: control

Structure (SMILES)	inhibition of growth at 300 ppm [1] [%]	inhibition of growth at 300 ppm [2] [%]	inhibition of growth at 300 ppm [3] [%]	inhibition of growth at 300 ppm [4] [%]	inhibition of growth at 300 ppm [5] [%]	inhibition of growth at 300 ppm [6] [%]	pest or weed control at 500 ppm [7] [%]	inhibition of growth at 300 ppm [8] [%]
CCN(C)C=Nc1cc(C)c(C(=O)COc2cccc(Br)c2)cc1C [Compound 3, N′-(4-(2-(3-bromophenoxy)acetyl)-2,5-dimethylphenyl)-N-ethyl-N-methylformimidamide]	> 70	> 70	> 70	> 70	> 70	> 70		
CCN(C)C=Nc1cc(C)c(C(=O)CSc2cccc(F)c2)cc1C [Compound 4, N-ethyl-N′-(4-(2-((3-fluorophenyl)thio)acetyl)-2,5-dimethylphenyl)-N-methylformimidamide]	> 70	> 70	> 70	> 70	> 70	> 70	> 90	
CCN(C)C=Nc1cc(C)c(C(=O)CSc2cccc(C)c2)cc1C [Compound 5, N′-(2,5-dimethyl-4-(2-(m-tolylthio)acetyl)phenyl)-N-ethyl-N-methylformimidamide]	> 70	> 70	> 70	> 70		> 70		70
CCN(C)C=Nc1cc(C)c(C(=O)CSc2cccc(Br)c2)cc1C [Compound 6, N′-(4-(2-((3-bromophenyl)thio)acetyl)-2,5-dimethylphenyl)-N-ethyl-N-methylformimidamide]	> 70	> 70	> 70	> 70	> 70	> 70	> 90	
CCN(C)C=Nc1cc(C)c(C(=O)COc2cccc(F)c2)cc1C [Compound 9, N-ethyl-N′-(4-(2-(3-fluorophenoxy)acetyl)-2,5-dimethylphenyl)-N-methylformimidamide]	> 70	> 70	> 70	> 70	> 70	> 70	> 90	
CCN(C)C=Nc1cc(C)c(C(=O)COc2ccc(C)cc2)cc1C [Compound 15, N′-(2,5-dimethyl-4-(2-(p-tolyloxy)acetyl)phenyl)-N-ethyl-N-methylformimidamide]	> 70	> 70	> 70	> 70	> 70	> 70	> 90	
CCN(C)C=Nc1cc(C)c(C(=O)CSc2cccc(OC)c2)cc1C [Compound 27, N-ethyl-N′-(4-(2-((3-methoxyphenyl)thio)acetyl)-2,5-dimethylphenyl)-N-methylformimidamide]	> 70	> 70	> 70	> 70	> 70	> 70		
CCN(C)C=Nc1cc(C)c(C(=O)CSc2ccc(F)cc2)cc1C [Compound 28, N-ethyl-N′-(4-(2-((4-fluorophenyl)thio)acetyl)-2,5-dimethylphenyl)-N-methylformimidamide]	> 70	> 70	> 70	> 70	> 70	> 70		70
CCN(C)C=Nc1cc(C)c(C(=O)CSc2ccc(Cl)cc2)cc1C [Compound 29, N′-(4-(2-((4-chlorophenyl)thio)acetyl)-2,5-dimethylphenyl)-N-ethyl-N-methylformimidamide]		> 70	> 70	> 70	> 70	> 70		70
CCN(C)C=Nc1cc(C)c(C(=O)C(C)(C)Sc2cccc(C)c2)cc1C [Compound 83, N′-(2,5-dimethyl-4-(2-methyl-2-(m-tolylthio)propanoyl)phenyl)-N-ethyl-N-methylformimidamide]	> 70	> 70	> 70		> 70	> 70		70
CCN(C)C=Nc1cc(C)c(C(=O)COc2c(Cl)cccc2Cl)cc1C [Compound 86, N′-(4-(2-(2,6-dichlorophenoxy)acetyl)-2,5-dimethylphenyl)-N-ethyl-N-methylformimidamide]	> 70	> 70	> 70		> 70	> 70		70
CCN(C)C=Nc1cc(C)c(C(=O)COc2c(C)cc(C)cc2Br)cc1C [Compound 89, N′-(4-(2-(2-bromo-4,6-dimethylphenoxy)acetyl)-2,5-dimethylphenyl)-N-ethyl-N-methylformimidamide]	> 70	> 70	> 70	> 70	> 70	> 70		
CCN(C)C=Nc1cc(C)c(C(=O)COc2c(C)cccc2Cl)cc1C [Compound 91, N′-(4-(2-(2-chloro-6-methylphenoxy)acetyl)-2,5-dimethylphenyl)-N-ethyl-N-methylformimidamide]	> 70	> 70	> 70		> 70	> 70		70
CCN(C)C=Nc1cc(C)c(C(=O)CN(C)c2ccc(C)cc2)cc1C [Compound 92, N′-(2,5-dimethyl-4-(N-methyl-N-(p-tolyl)glycyl)phenyl)-N-ethyl-N-methylformimidamide]	> 70		> 70	> 70	> 70	> 70		
Cc1cc(C(=O)COc2ccccc2Cl)c(C)cc1N=CN(C)C [Compound 109, N′-(4-(2-(2-chlorophenoxy)acetyl)-2,5-dimethylphenyl)-N,N-dimethylformimidamide]	> 70		> 70			> 70		70
CCN(C)C=Nc1cc(C)c(C(=O)Cn2cnnc2)cc1C [Compound 114, N′-(4-(2-(4H-1,2,4-triazol-4-yl)acetyl)-2,5-dimethylphenyl)-N-ethyl-N-methylformimidamide]	> 70	> 70	> 70		> 70	> 70		70
